Biological target: T1, human β3 adrenergic receptor (Homo sapiens, UniProt P13945)
T1 construct: expressed in transfected cells; host or cells: DXB-11 Chinese hamster ovary (CHO) cell line, stably transfected (phd expression vector)
Assay: whole cell receptor coupled c-AMP assay, human β3 receptor in CHO cells (EC50, Emax relative to isoproterenol)
Format: cell-based
From the text: The genes encoding the human β1-adrenergic receptor (Frielle et al., Proc. Natl. Acad. Sci., 84:7920-7924, 1987), the human β2-adrenergic receptor (Kobika et al., Proc. Natl. Acad. Sci., 84:46-50, 1987, Emorine et al., Proc. Natl. Acad. Sci., 84:6995-6999, 1987) and the human β3 adrenergic receptor (Granneman et al., Molecular Pharmacology, 44(2):264-70, 1993) are individually subcloned into a phd expression vector (Grinnell et al., Bio/Technology, 5:1189-1192, 1987) and transfected into the DXB-11 Chinese hamster ovary (CHO) cell line by calcium phosphate precipitation methodology. The stably transfected cells are grown to 95% confluency in 95% Dulbecco's modified Eagles Medium (DMEM), 5% fetal bovine serum and 0.01% proline. Media is removed and the cells are washed with phosphate buffered (pH 7.4) saline (without magnesium and calcium). Cells are then lifted using an enzyme free cell dissociation solution (Specialty Media, Lavallette, N.J.) and pelleted by centrifugation.
Cells from each of the above cell lines are resuspended and added (20,000/well) to a 96-well plate. Cells are incubated at 37° C. with representative compounds of the invention for 20 minutes in buffer (Hank's balanced salt solution, 10 mM HEPES, 0.1% BSA, 1 mM L-ascorbic acid, 0.2% dimethyl sulfoxide, 1 mm 3-isobutyl-1-methylxanthine, pH 7.4). After halting the incubation with quench buffer (50 mM Na Acetate, 0.25% Triton X-100, pH 5.8), the c-AMP level is quantified by scintillation proximity assay (SPA) using a modification of the commercially available c-AMP kit (Amersham, Arlington Heights, Ill.) with rabbit anti-cAMP antibody (ICN Biomedicals, Aurora, Ohio) for the kit.
Sigmoidal dose response curves, from the whole cell receptor coupled c-AMP assay are fit to a four parameter logistic equation using non linear regression: y=(a−d)/(1+(Dose/c)^b)+d where a and d are responses at zero and maximal dose, b is the slope factor and c is the EC50 as previously described (DeLean et al., Am. J. Physiol., 235, E97-E102, 1978). EC50 is assessed as the concentration producing 50% of the maximum response to each agonist.
Isoproterenol is accepted in the art as a non-selective β3 agonist and is widely used as a comparator in evaluating the activity of compounds. See Trends in Pharm. Sci., 15:3, 1994. The % intrinsic activity (Emax) of representative compounds of the invention is assessed relative to isoproterenol by the compound's maximal response divided by the isoproterenol maximal response times 100.

[1] = Emax ± standard error of the mean, average of at least 3 runs except where n = 1, compound tested in the isolated form listed
[2] = % intrinsic activity relative to isoproterenol maximal response, average of at least 3 runs, c-AMP in transfected CHO cells
[3] = Emax ± SEM, average of at least 3 runs except as otherwise indicated, tested as the isolated form listed

T1 sequence (P13945 whole entry): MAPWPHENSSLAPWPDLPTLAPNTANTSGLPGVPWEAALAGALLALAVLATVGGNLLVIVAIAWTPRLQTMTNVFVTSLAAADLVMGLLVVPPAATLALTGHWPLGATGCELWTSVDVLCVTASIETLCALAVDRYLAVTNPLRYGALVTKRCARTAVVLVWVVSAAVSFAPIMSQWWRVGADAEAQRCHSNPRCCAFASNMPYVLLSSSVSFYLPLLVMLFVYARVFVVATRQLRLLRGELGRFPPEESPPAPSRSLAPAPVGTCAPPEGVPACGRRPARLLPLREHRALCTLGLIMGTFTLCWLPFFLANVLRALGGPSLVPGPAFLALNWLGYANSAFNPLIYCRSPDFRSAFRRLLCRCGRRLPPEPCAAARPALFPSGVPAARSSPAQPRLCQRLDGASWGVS

Structure (SMILES)	Emax (%) ± SEM [1]	other results
CC(C)(Cc1ccc(Oc2ncccc2C(N)=O)cc1)NC[C@H](O)COc1ccccc1N1CCNCC1.Cl.Cl.Cl [Example 80]	12.3 ± 0.2%	–
CC(C)(Cc1ccc(Oc2ccc(C#N)cc2Cl)cc1)NC[C@H](O)COc1ccccc1-c1cccs1.O=C(O)C(F)(F)F [Example 161]	52.5 ± 4.7%	–
CC(C)(Cc1ccc(Oc2ccc(C(N)=O)cn2)cc1)NC[C@H](O)COc1ccccc1-c1cc2ccccc2s1 [Example 385]	–	Emax (%) ± SEM [2]: 43.1 ± 4.3%
Cn1ccc(-c2ccccc2OC[C@@H](O)CNC(C)(C)Cc2ccc(Oc3ncccc3C(N)=O)cc2)n1 [Example 15]	70.9 ± 3.0%	–
CC(C)(Cc1ccc(Oc2ncccc2C(N)=O)cc1)NC[C@H](O)COc1ccccc1-c1ccsc1.O=C(O)C(F)(F)F [Example 381]	–	Emax (%) ± SEM [2]: 58.5 ± 6.9%
CC(C)(Cc1ccc(Oc2ncccc2C(N)=O)cc1)NC[C@H](O)COc1ccccc1N1CCCCC1.Cl.Cl [Example 79]	21.3 ± 3.3%	–
COC(=O)c1ccc(Oc2ccc(CC(C)(C)NC[C@H](O)COc3ccccc3-c3ccn(C)n3)cc2)c(Cl)c1 [Example 138]	41.7 n = 1%	–
CC(C)(Cc1ccc(Oc2ccc(C(N)=O)o2)cc1)NC[C@H](O)COc1ccccc1-c1nccs1.O=C(O)C(F)(F)F [Example 327]	–	Emax (%) ± SEM [3]: 56.7 ± 2.1%
CC(C)(Cc1ccc(Oc2ccc(Cl)cn2)cc1)NC[C@H](O)COc1ccccc1-c1cccs1.O=C(O)C(F)(F)F [Example 167]	57.3 ± 3.5%	–
CC(C)(Cc1ccc(Oc2cccnc2C#N)cc1)NC[C@H](O)COc1ccccc1-c1ccno1.O=C(O)C(F)(F)F [Example 146]	58.7 ± 2.9%	–
CC(=O)c1ccc(-c2ccccc2OC[C@@H](O)CNC(C)(C)Cc2ccc(Oc3ncccc3C(N)=O)cc2)s1.O=C(O)C(F)(F)F [Example 419]	–	Emax (%) ± SEM [2]: 87.5 ± 1.8%
CC(C)(Cc1ccc(Oc2ncccc2C#N)cc1)NC[C@H](O)COc1ccccc1N1CCCC1=O [Example 58]	21.0 ± 3.4%	–
CC(C)(Cc1ccc(Oc2cnccn2)cc1)NC[C@H](O)COc1ccccc1-c1nccs1.O=C(O)C(F)(F)F [Example 154]	61.1 ± 7.7%	–
CC(C)(Cc1ccc(Oc2ccc(C(N)=O)cn2)cc1)NC[C@H](O)COc1ccccc1-c1ccoc1.Cl [Example 43]	61.9 ± 2.5%	–
CC(C)(Cc1ccc(Oc2ccc(S(C)(=O)=O)cc2)cc1)NC[C@H](O)COc1ccccc1-c1ccoc1.Cl [Example 304]	–	Emax (%) ± SEM [3]: 44.8 ± 4.9%
CC(C)(Cc1ccc(Oc2ncccc2C(N)=O)cc1)NC[C@H](O)COc1ccccc1-n1cccc1.Cl [Example 85]	69.2 ± 12.1%	–
CC(C)(Cc1ccc(Oc2cccnc2C#N)cc1)NC[C@H](O)COc1ccccc1-c1cccs1.O=C(O)C(F)(F)F [Example 143]	67.2 ± 4.8%	–

Structure (SMILES)	Emax (%) ± SEM [1]	other results
CC(C)(Cc1ccc(Oc2ccc(S(C)(=O)=O)cc2)cc1)NC[C@H](O)COc1ccccc1-c1ccn[nH]1 [Example 133]	21.4 n = 1%	–
COC(=O)c1ccc(Oc2ccc(CC(C)(C)NC[C@H](O)COc3ccccc3-c3cccs3)cc2)nc1 [Example 115]	61.9 ± 7.0%	–
CC(C)(Cc1ccc(Oc2ncccc2C(N)=O)cc1)NC[C@H](O)COc1ccccc1-c1ccoc1.Cl [Example 303]	–	Emax (%) ± SEM [3]: 67.9 ± 6.1%
CC(C)(Cc1ccc(Oc2ccccn2)cc1)NC[C@H](O)COc1ccccc1-c1cccs1.O=C(O)C(F)(F)F [Example 1]	58.1 ± 2.6%	–
CC(C)(Cc1ccc(Oc2ncccc2C(N)=O)cc1)NC[C@H](O)COc1cccc(-c2cc[nH]n2)c1 [Example 92]	14.4 n = 1%	–
CC(C)(Cc1ccc(Oc2ncccc2C(N)=O)cc1)NC[C@H](O)COc1ccccc1-c1ccn[nH]1 [Example 74]	36.8 n = 1%	–
CC(C)(Cc1ccc(Oc2ccc(C(N)=O)cn2)cc1)NC[C@H](O)COc1ccccc1-c1cc2ccccc2[nH]1 [Example 20]	30.4 ± 2.5%	–
CC(C)(Cc1ccc(Oc2ncccc2C(N)=O)cc1)NC[C@H](O)COc1ccccc1-c1ccc(C(=O)O)s1 [Example 449]	–	Emax (% intrinsic activity relative to isoproterenol maximal response, SEM in brackets, c-AMP in transfected CHO cells): 74.2%
CC(C)(Cc1ccc(Oc2ncccc2C#N)cc1)NC[C@H](O)COc1ccccc1-c1cc2ccccc2s1 [Example 386]	–	Emax (%) ± SEM [2]: 46.9 ± 6.7%
CC(=O)c1ccc(-c2ccccc2OC[C@@H](O)CNC(C)(C)Cc2ccc(Oc3ccc(C(N)=O)cn3)cc2)s1.O=C(O)C(F)(F)F [Example 411]	–	Emax (%) ± SEM [2]: 78.2 ± 9.9%
CC(C)(Cc1ccc(Oc2ncccc2C(N)=O)cc1)NC[C@H](O)COc1ccccc1N1CCCC1 [Example 84]	72.1 ± 6.2%	–
CC(C)(Cc1ccc(Oc2ccc(C(N)=O)cc2)cc1)NC[C@H](O)COc1ccccc1-c1ccns1.O=C(O)C(F)(F)F [Example 126]	62.2 ± 1.3%	–
CC(C)(Cc1ccc(Oc2nc(Cl)c(Cl)cc2Cl)cc1)NC[C@H](O)COc1ccccc1-c1ccno1.O=C(O)C(F)(F)F [Example 158]	73.0 ± 3.0%	–
CC(C)(Cc1ccc(Oc2ncccc2C#N)cc1)NC[C@H](O)COc1ccccc1-c1ccnc(N)n1 [Example 61]	32.8 ± 4.3%	–
CC(C)(Cc1ccc(Oc2ccc(C#N)cn2)cc1)NC[C@H](O)COc1c(F)cccc1-c1ccco1.Cl [Example 430]	–	Emax (%) ± SEM [2]: 77.4 ± 9.0%
COC(=O)c1ccc(Oc2ccc(CC(C)(C)NC[C@H](O)COc3ccccc3-c3ccn[nH]3)cc2)c(Cl)c1 [Example 142]	20.2 n = 1%	–

Second part, led by results:

Emax (%) ± SEM [1]	Structure (SMILES)	other results
37.0 ± 0.3%	CC(C)(Cc1ccc(Oc2ccc(S(C)(=O)=O)cc2F)cc1)NC[C@H](O)COc1ccccc1-c1nccs1.O=C(O)C(F)(F)F [Example 224]	–
54.6 ± 8.2%	CC(C)(Cc1ccc(Oc2cccnc2C#N)cc1)NC[C@H](O)COc1ccccc1-n1cccc1.Cl [Example 268]	–
63.6 ± 4.3%	Cc1nc(-c2ccccc2OC[C@@H](O)CNC(C)(C)Cc2ccc(Oc3ncccc3C(N)=O)cc2)[nH]c1C.Cl.Cl [Example 262]	–
37.4 ± 7.2%	CC(C)(Cc1ccc(-c2ccccc2C#N)cc1)NC[C@H](O)COc1ccccc1-c1ccno1.O=C(O)C(=O)O [Example 289]	–
52.9 ± 7.4%	CCOC(=O)c1ccc(Oc2ccc(CC(C)(C)NC[C@H](O)COc3ccccc3-c3ccno3)cc2)c(Cl)c1.O=C(O)C(F)(F)F [Example 288]	–
36.7 ± 6.8%	CC(C)(Cc1ccc(Oc2ccc(C(N)=O)nc2)cc1)NC[C@H](O)COc1ccccc1-n1cccc1.Cl [Example 266]	–
48.1 ± 3.8%	CC(C)(Cc1ccc(Oc2ccc(C(F)(F)F)cn2)cc1)NC[C@H](O)COc1ccccc1-c1ccno1.O=C(O)C(F)(F)F [Example 195]	–
33.4 ± 5.7%	CC(C)(Cc1ccc(Oc2ccc(S(N)(=O)=O)cc2F)cc1)NC[C@H](O)COc1ccccc1-c1cscn1.Cl [Example 251]	–
39.9 ± 4.9%	CC(C)(Cc1ccc(Oc2ccncc2)cc1)NC[C@H](O)COc1ccccc1-c1ccno1.O=C(O)C(F)(F)F [Example 287]	–
48.1 ± 6.5%	CC(C)(Cc1ccc(Oc2cccnc2C(N)=O)cc1)NC[C@H](O)COc1ccccc1-c1ccno1.O=C(O)C(F)(F)F [Example 198]	–
64.2 ± 8.1%	CC(C)(Cc1ccc(Oc2ccc(C(N)=O)nc2)cc1)NC[C@H](O)COc1ccccc1-c1nccs1.O=C(O)C(F)(F)F [Example 206]	–
64.1 ± 3.2%	CCOC(=O)c1ccc(Oc2ccc(CC(C)(C)NC[C@H](O)COc3ccccc3-c3cccs3)cc2)c(F)c1.O=C(O)C(F)(F)F [Example 184]	–
76.2 ± 8.3%	CC(C)(Cc1ccc(Oc2cccc(Cl)c2C#N)cc1)NC[C@H](O)COc1ccccc1-c1ccno1.O=C(O)C(F)(F)F [Example 217]	–
56.6 ± 4.2%	CC(C)(Cc1ccc(Oc2ccc(C(F)(F)F)cn2)cc1)NC[C@H](O)COc1ccccc1-c1nccs1.O=C(O)C(F)(F)F [Example 194]	–
28.9 ± 3.4%	CC(C)(Cc1ccc(Oc2ccccc2C(N)=O)cc1)NC[C@H](O)COc1cccc(F)c1-c1cccs1.O=C(O)C(F)(F)F [Example 228]	–
37.8 ± 9.2%	CC(C)(Cc1ccc(Oc2ccc(S(N)(=O)=O)cc2F)cc1)NC[C@H](O)COc1ccccc1-c1nccs1.O=C(O)C(F)(F)F [Example 226]	–
